Data on seven molecules can be found in patent US10766912B2 (priority 2017, dated 2020).

Where two headings read alike, the source gives them in different places.

Series [1] concerns GT1a-NS5A-L31V mutant replicon. In words: Assay Example 6: drug resistance, activity against GT1a-NS5A-L31V mutant replicon. The class given is cell-based, hepatitis C virus. Particulars: for GT1a-NS5A-L31V Fold change: EC50 mutant versus GT1a-wt; for EC50: Hepatitis C virus, GT1A, Huh-7, 72 h, read-out: GT1a-NS5A-L31V EC50 value. As for the experimental part: (§1) Cells: Huh-7 cells are liver cancer cell strains (from AppTec, USA), HCVGT1a wild-type replicon and GT1a-NS5A-Y93H and GT1a-NS5A-L31V mutant replicons
(§2) Treatment of Compound: According to the assay final concentrations of the compounds in Table 11, DMSO stock solutions of the compounds were diluted and then added to a 96-well assay plate. The final concentration of DMSO was 0.5%.
(§3) The preparation of cells: After replicon plasmid DNA was linearized with a corresponding restriction enzyme, the DNA was transcribed into RNA by using T7 RNA polymerase. Replicon RNA prepared by transcription in vitro was transfected into Huh-7 cells by electroporation. Transfected cells were seeded at a density of 10,000 cells per well into the 96-well assay plate containing the diluted compounds, and then placed in a 37° C. incubator with 5% CO2 and cultured for 3 days.
(§4) Compound activity assay: Luminescence signal value (RLU) was detected with Envision within 5 minutes by using the luciferase assay reagent Britelite plus, and the original data (RLU) was used for the calculation of the activity of the compounds.
(§5) The activity of the compounds was calculated by using the equation below: Inhibition %=(CPD−ZPE)/(HPE−ZPE)×100%*
(§6) The compound activity percentages (Inhibition %) were imported into GraphPad Prism software, and curves were fitted by using nonlinear regression method to obtain the corresponding curves of the compounds and the inhibitory activity (EC50) values against the HCV replicon thereof.

Series [2] has as its system HCV GT1a wild type (wt) replicon. In words: Assay Example 2: activity against HCV GT1a wild-type replicon. The class given is cell-based. The conditions noted are these: Hepatitis C virus, 72 h, Huh-7 cells, transient transfection, 3 days. Here is the method:
(§7) Cells: Huh-7 cells are liver cancer cell strains (from AppTec, USA), HCV GT1a and GT1b wild type (wt) replicons, GT1b/3a, GT1b/4a, GT1b/5a and GT1b/6a NS5A chimeric replicons.
(§8) Treatment of Compound: According to the assay final concentrations of the compounds in Table 5, DMSO stock solutions of the compounds were diluted and then added to a 96-well assay plate. The final concentration of DMSO was 0.5%.
as §3
(§9) Drug activity assay: Luminescence signal value (RLU) was detected with Envision within 15 minutes using the luciferase assay reagent Britelite plus, and the original data (RLU) was used for the calculation of the activity of the compounds.
(§10) The cytotoxicity of the compounds was calculated by using the equation below: Cell Viability %=(CPD−HPE)/(ZPE−HPE)×100%* The activity of the compounds was calculated by using the equation below: Inhibition %=(ZPE−CPD)/(ZPE−HPE)×100%*
(§11) The cell viability percentages (Viability %) and the inhibition percentages (Inhibition %) were imported into GraphPad Prism software, respectively, and curves were fitted by using nonlinear regression method to obtain the corresponding curves of the compounds, and the cytotoxicity (CC50) thereof and the inhibitory activity (EC50) values against the HCV replicon thereof.

Series [3] has as its system GT1a-NS5A-Y93H mutant replicon. In words: Assay Example 6: drug resistance, activity against GT1a-NS5A-Y93H mutant replicon. It is filed as cell-based, hepatitis C virus. The conditions noted are these: for GT1a-NS5A-Y93H Fold change: EC50 mutant versus GT1a-wt; for EC50: Hepatitis C virus, GT1A, Huh-7, 72 h, read-out: GT1a-NS5A-Y93H EC50 value. Here is the method:
as §1, §2, §3, §4, §5, §6

Series [4] is described as follows: Assay Example 2: cell viability assay (CellTiter-Fluor), GT1b wild-type replicon plate. The class given is cell-based. Particulars: human, Huh-7 cells with GT1b wild-type replicon, read-out: CC50 Value GT1b-wt. Here is the method: as §7, §8, §3
Cell viability assay: A cell growth fluorescent titration detection reagent CellTiter-Fluor was added to the 96-well plate of the GT1b wild-type replicon. After the cells were cultured for 1 hour in a 37° C. incubator with 5% CO2, the fluorescence signal value (RFU) was detected by Envision, and the original data (RFU) was used for the calculation of the cytotoxicity of the compounds.
as §10, §11

Series [5] deals with HCV GT1b/3a NS5A chimeric replicon. Nature of the series: Assay Example 2: activity against GT1b/3a NS5A chimeric replicon. The class given is cell-based. The conditions noted are these: Hepatitis C virus, Huh-7, 72 h, read-out: EC50 Value GT1b/3a-NS5A-wt. Here is the method: as §7, §8, §3, §9, §10, §11
For series [6], the system named is HCV GT1a wild-type replicon. Nature of the series: Assay Example 6: drug resistance, activity against HCV GT1a wild-type replicon. It is filed as cell-based. Particulars: Hepatitis C virus, 72 h, Huh-7 cells, transient transfection, 3 days, read-out: GT1a-wt EC50 value. Here is the method:
as §1, §2, §3, §4, §5, §6

The test system of series [7] is HCV GT1b wild type (wt) replicon. In words: Assay Example 2: activity against HCV GT1b wild-type replicon. The class given is cell-based. The conditions noted are these: Hepatitis C virus, read-out: EC50 Value GT1b-wt. As for the experimental part: as §7, §8, §3, §9, §10, §11
In series [8] the test system is HCV GT1b/6a NS5A chimeric replicon. Nature of the series: Assay Example 2: activity against GT1b/6a NS5A chimeric replicon. The class given is cell-based. The conditions noted are these: Hepatitis C virus, Huh-7, 72 h, read-out: EC50 Value GT1b/6a-NS5A-wt. Here is the method: as §7, §8, §3, §9, §10, §11
The nature of series [9]: Assay Example 3: parallel cytotoxicity assay (alamarBlue) without viral infection. It is filed as cell-based. Particulars: human, Huh7.5.1 cells without viral infection, no viral infection, read-out: CC50 Value HCVcc. Here is the method: (§12) Cells: Huh7.5.1 cells and hepatitis C virus HCVcc (GT2a, JFH-1) infection system.
(§13) Treatment of Compound: According to the assay final concentrations of the compounds in Table 6, DMSO stock solutions of the compounds were diluted and then added to a 96-well assay plate. The final concentration of DMSO was 0.5%.
(§14) Viral infection: Huh7.5.1 cells were seeded in a 96-well cell culture plate, and the cells were cultured overnight at 37° C. in an incubator with 5% CO2 for later use. The compound and the HCVcc virus solution (MOI=0.1) were simultaneously added to the cells, and the virus infection was cultured for 3 days. Parallel cytotoxicity assay was identical to the method for the inhibition of the virus but without viral infection.
Cell viability assay: Cell viability was detected by the addition of alamarBlue assay reagent. The original data (RFU) was used for the calculation of the cytotoxicity of the compounds.
The cytotoxicity of the compounds was calculated by using the equation below: Cell Viability %=CPD/CC×100%*
(§15) The cell viability percentages (Cell Viability %) and the compound activity percentages (Inhibition %) were imported into GraphPad Prism software, respectively, and curves were fitted by using nonlinear regression method to obtain the corresponding curves of the compounds, and the cytotoxicity (CC50) thereof and inhibitory activity (EC50) values against the HCV replicon thereof.

Series [10] concerns HCV GT1b/4a NS5A chimeric replicon. Nature of the series: Assay Example 2: activity against GT1b/4a NS5A chimeric replicon. It is filed as cell-based. Particulars: Hepatitis C virus, Huh-7, 72 h, read-out: EC50 Value GT1b/4a-NS5A-wt. Here is the method:
as §7, §8, §3, §9, §10, §11

Series [11] concerns HCV GT1b/5a NS5A chimeric replicon. In words: Assay Example 2: activity against GT1b/5a NS5A chimeric replicon. It is filed as cell-based. The conditions noted are these: Hepatitis C virus, Huh-7, 72 h, read-out: EC50 Value GT1b/5a-NS5A-wt. As for the experimental part: as §7, §8, §3, §9, §10, §11
The subject of series [12] is hepatitis C virus HCVcc (GT2a, JFH-1). Nature of the series: Assay Example 3: activity against infective hepatitis C virus HCVcc (GT2a, JFH-1). The class given is cell-based. Particulars: Huh-7.5.1, 72 h, read-out: EC50 Value GT2a HCVcc. As for the experimental part:
as §12, §13, §14
Drug activity assay: The activity of hRLuc was detected by the addition of Renilla luciferase assay reagent. The original data (RLU) was used for the calculation of the activity of the compounds.
The activity of the compounds was calculated by using the equation below: Inhibition %=(CPD−VC)/(CC−VC)×100%*
as §15

Where [13] appears, read: Huh-7 cells transfected with HCV GT1b wild-type replicon RNA.
Setting [14] is: 72 h, Huh-7 cells, transient transfection, 3 days.

Turning to `COC(=O)N[C@H](C(=O)N1CCC[C@H]1c1nc2cc([C@H]3CC[C@H](c4ccc5[nH]c([C@@H]6CCCN6C(=O)[C@@H](NC(=O)OC)[C@@H](C)OC)nc5c4)N3c3cc(F)c(N4CC[Si]5(CCCC5)CC4)c(F)c3)ccc2[nH]1)[C@@H](C)OC` [Compound 7b], the “GT1a-NS5A-L31V Fold change” value in series [1] worked out at 3.4. The EC50 in series [1] was 6.1 pM; in series [2], 1.44 pM; in [3], 903 pM; in series [5] it was 10.3 pM; in series [6] it was 1.8 pM; in [7] (setting [14]) it was 3.3 pM. The “GT1a-NS5A-Y93H Fold change” value in series [3] was 502. For the same molecule, the CC50 at 3 days in [4] (setting [13]) is above 200 pM.
`COC(=O)N[C@H](C(=O)N1CCCC1C(=O)Nc1ccc([C@H]2CC[C@H](c3ccc(-c4cnc([C@@H]5CCCN5C(=O)[C@@H](NC(=O)OC)[C@@H](C)OC)[nH]4)cc3)N2c2cc(F)c(N3CC[Si](C)(C)CC3)c(F)c2)cc1)[C@@H](C)OC` (stereo partly drawn) [Compound 8b, Methyl ((2S,3R)-1-((S)-2-((4-((2R,5R)-1-(4-(4,4-dimethylazasilinan-1-yl)-3,5-difluorophenyl-5-(4-(2-((S)-1-(N-methoxycarbonyl)-O-methyl-L-threonyl)pyrrolidin-2-yl)-1H-imidazazol-5-yl)phenyl)pyrrolidin-2-yl)phenyl)carbamoyl)pyrrolidin-1-yl)-3-methoxy-1-oxobutan-2-yl)carbamate]: the figures for the EC50 in series [8], in series [5] and in series [7] (setting [14]) were 6.73 pM, 67.9 pM and 1.59 pM, respectively. In series [4] (setting [13]), the CC50 at 3 days was above 200 pM.
Consider `COC(=O)N[C@H](C(=O)N1CCC[C@H]1c1nc2cc([C@H]3CC[C@H](c4cc5nc([C@@H]6CCCN6C(=O)[C@@H](NC(=O)OC)[C@@H](C)OC)[nH]c5cc4F)N3c3cc(F)c(N4CC[Si](C)(C)CC4)c(F)c3)c(F)cc2[nH]1)[C@@H](C)OC` [Compound 9b], for which the “GT1a-NS5A-L31V Fold change” value in series [1] turned out to be 0.9. Moreover, the EC50 in series [1] was determined as 1.7 pM; in series [2], 1.01 pM; in series [8], 1.13 pM; in series [3], 40 pM; in series [10] it was 2.49 pM; in series [5], 3.8 pM. The results for the EC50 in [11], in series [6] and in [7] (setting [14]) were 6.08 pM, 2 pM and 5.28 pM, respectively. Besides, the CC50 at 3 days is above 100 pM in [9] and above 200 pM in series [4] (setting [13]). Further, the “GT1a-NS5A-Y93H Fold change” value in series [3] was 20.0.
In the case of `COC(=O)N[C@H](C(=O)N1CCC[C@H]1C(=O)Nc1ccc([C@@H]2CC[C@@H](c3ccc(NC(=O)[C@@H]4CCCN4C(=O)[C@@H](NC(=O)OC)[C@@H](C)OC)cc3)N2c2cc(F)c(N3CC[Si]4(CCCCC4)CC3)c(F)c2)cc1)[C@@H](C)OC` [Compound 11a], the EC50 was 1.69 pM in [8]; 8.8 pM in series [5]; 1.34 pM in [7] (Huh-7, 72 h). In addition, the CC50 at 3 days in series [4] is above 200 pM.
`COC(=O)N[C@H](C(=O)N1CCC[C@H]1C(=O)Nc1ccc([C@H]2CC[C@H](c3cc4[nH]c([C@@H]5CCCN5C(=O)[C@@H](NC(=O)OC)[C@@H](C)OC)nc4cc3F)N2c2cc(F)c(N3CC[Si](C)(C)CC3)c(F)c2)cc1)[C@@H](C)OC` [Compound 14b]: the “GT1a-NS5A-L31V Fold change” value in series [1] is recorded as 11.0. Moreover, the EC50 turned out to be 32 pM in series [1]; 1.07 pM in [2]; 1.12 pM in series [8]; 1.59 pM in series [10]; 6.11 pM in series [5]; 5.37 pM in series [11]. Further, the EC50 in [6] is 2.9 pM; in series [7] (setting [14]), 2.92 pM. For the same molecule, the CC50 at 3 days was above 100 pM in [9] and above 200 pM in [4] (setting [13]).
As for `COC[C@H]1C[C@@H](C(=O)Nc2ccc([C@H]3CC[C@H](c4cc5[nH]c([C@@H]6CCCN6C(=O)[C@@H](NC(=O)OC)[C@@H](C)OC)nc5cc4F)N3c3cc(F)c(N4CC[Si](C)(C)CC4)c(F)c3)cc2)N(C(=O)[C@@H](NC(=O)OC)[C@@H](C)OC)C1` [Compound 17b], the results for the CC50 at 3 days in series [9] and in series [4] (setting [13]) were above 100 pM and above 200 pM, respectively. Moreover, the EC50 in series [8] turned out to be 1.09 pM; in [10], 1.66 pM; in series [5] it was 5.71 pM; in [12], 2.68 pM; in series [11], 4.66 pM; in series [7] (setting [14]), 3.06 pM.
`COC[C@H]1C[C@@H](C(=O)Nc2ccc([C@H]3CC[C@H](c4ccc5nc([C@@H]6CCCN6C(=O)[C@@H](NC(=O)OC)[C@@H](C)OC)[nH]c5c4)N3c3cc(F)c(N4CC[Si](C)(C)CC4)c(F)c3)cc2)N(C(=O)[C@@H](NC(=O)OC)[C@@H](C)OC)C1` [Compound 18b]: the CC50 at 3 days in [9] is above 100 pM; in series [4] (setting [13]) it was above 200 pM. Also, the EC50 in series [8] came to 1.75 pM; in series [5], 7.14 pM; in [12], 1.15 pM; in series [11] it was 4.5 pM; in series [7] (setting [14]) it was 2.59 pM.
